In a melting point compilation (Tetko et al.; mined from patent text by program, amines drawn as free bases though some values may be those of a salt) one finds melting point data, which are given here for 90 compounds.

One may read the melting point as the temperature, or range, at which the solid turns liquid.

Each structure is given as a SMILES string. Where only a bound is given, the exact number is not on record here.

Consider `COc1ccnc2c1c(C(C)=O)cn2C`, for which the melting point fell in the range of 79 to 81 °C.
Regarding `COc1cc2cc(C)sc2c(Cl)c1Cl`, the melting point lay in the range of 113 to 114 °C.
`CC12CCC3=C(CCC(CCCC#N)O3)C1=CCC2=O` (stereo not given) showed a melting point of 100 °C.
In turn, `CC(C)Sc1cn(C)cc(-c2cccc(C(F)(F)F)c2)c1=O` came in with a melting point of 93 to 94 °C.
The compound `COc1cc(NC2CCCC2)n2nc(-c3ccc(F)cc3)c(-c3ccnc(NC4CCCC4)n3)c2c1` came in with a melting point of 167 to 169 °C.
The compound `CC(C)OC(=O)c1nc(Cl)sc1Cl` displayed a melting point of 46 °C.
`C=CCN(C)CCCCCCOc1ccc2c(-c3ccc(Br)cc3)cc(C)nc2c1` showed a melting point of 88 to 93 °C.
`CC(=NO)c1ccc2c(c1)CCc1c(O)cc(O)cc1S2`: the melting point is 215 to 218 °C.
The value for `O=C(Cl)N1CCOCC1` was 138 to 139 °C; that for `COc1cc(OC)c2c(=O)[nH]c(-c3ccc(CN4CCN(C)CC4)cc3)nc2c1` was 275 to 277 °C; that for `O=C(C=Cc1ccccc1)c1cc(Cl)ccc1O` was 142 to 145 °C.
As for `Cc1cc(Oc2ncc(C(F)(F)F)cc2Cl)nn1C(=O)N(C)C`, the melting point was in the range of 102 to 104 °C.
Regarding `COC(=O)CN(NC(N)=O)c1ccc(OC)c(C)c1`, the melting point fell in the range of 174 to 176 °C.
The compound `CCC(C)COc1ccc(-c2ccc(OS(=O)(=O)c3ccc(C)cc3)cc2)cc1` (stereo not given) registered a melting point of 94 to 97 °C.
`O=C(Nc1ccccc1)Nc1[nH]c2ccccc2c1-c1ccccc1` gave a melting point of 210 to 212 °C.
The value for `CCCc1nc2c(N)nc3ccccc3c2n1CCC(=O)OCC` was 156 to 157 °C; that for `CCOC(=O)C1=C(C)Nc2ccnc(OC(C)C)c2C1c1cccc(C(F)(F)F)c1` (stereo not given) was 130 to 131 °C.
In the case of `CCOc1nc2c(nc1C(=O)N1CCN(C)CC1)c(C)nn2CC`, the melting point is 111 to 112 °C.
Take `OC1C(COCC(F)(F)F)OC(n2cnc3c(Nc4ccc(F)cc4)ncnc32)C1O` (stereo not given): the melting point lay within 214 to 215 °C.
Turning to `CCC(=O)N(C)c1cccc(-c2ccc3nnc(N)n3n2)c1`, the melting point lay within 190 to 191 °C.
`CC(C)(C)OC(=O)c1cc(Br)cc([N+](=O)[O-])c1` had a melting point of 77 to 78 °C.
The value for `CC(C)(C)c1c(C(=O)NC2C3CC4CC(C3)CC2C4)cnn1-c1ccc(C(=O)O)cc1` (stereo not given) was 309 °C; that for `Cc1cccnc1C1CC(C)(C)Oc2ccccc21` (stereo not given) was 100 to 102 °C; that for `CCc1ccc(-c2ccc3c(c2)C=C(C(=O)Nc2ccc(CN(C)C4CCOCC4)cc2)CCS3(=O)=O)cc1` was 257 to 260 °C.
`CCS(=O)(=O)N(C)c1c(Cl)c(Cl)cc2[nH]c(=O)c(=O)[nH]c12` returned a melting point of more than 300 °C.
Take `Cc1c(-c2c(F)cc(Cl)c(=O)n2C)nn(C)c1C#N`: the melting point lay within 190 to 191 °C.
Compound `O=C(CCCCCl)c1cc2c(c([N+](=O)[O-])c1)OCC2` yielded a melting point of 91 to 92 °C.
Compound `COC(=O)c1cc(C)sc1S(N)(=O)=O` gave a melting point of 137 to 138 °C.
Regarding `COC(=O)C(Cc1ccccc1)Oc1c(Br)cc(-c2ccc(-c3nc(-c4ccc(C(F)(F)F)cc4)oc3C)cc2)cc1Br` (stereo not given), the melting point is 70 to 72 °C.
`CC1CCCC(Cl)(Cl)C(=O)N1` (stereo not given): the melting point is 132 to 134 °C.
In the case of `Nc1c(F)c(N2C[C@H](CF)[C@H](N)C2)c(F)c2c1c(=O)c(C(=O)O)cn2C1CC1` (relative stereo) it was 248 to 249 °C; in that of `OC1c2cc(OCc3ccc4ccccc4n3)ccc2OCC1Oc1ccccc1` (stereo not given), 151 to 153 °C; in that of `O=c1cc(-c2ccccc2)n(-c2ccccc2)c(-c2ccccc2)c1C(F)(F)F`, 222 to 225 °C.
Regarding `O=S(=O)(Nc1ccc(Cl)nc1I)c1ccccc1`, the melting point amounted to 132 °C.
Regarding `FC(F)(F)c1c[nH]c(-c2ccc(-c3nc(C(F)(F)F)c[nH]3)cc2)n1`, the melting point turned out to be 325 °C.
The value for `Cn1c(Cn2ccnc2)nc2ccccc21` was 151 to 152 °C.
Compound `CCCCc1nnc(C(=O)N(C)Cc2ccccc2)n1Cc1ccc(-c2ccccc2-c2nnn[nH]2)cc1` gave a melting point of more than 95 °C.
The value for `COc1cc2c(cc1OC)CC(NC(=O)N(C)O)CC2` (stereo not given) was 150 to 151 °C; that for `Cn1c(=O)c(-c2ccc(Cl)cc2Cl)cc2c3cc(-c4cnco4)ccc3n(C)c21` was 170 to 174 °C.
For the compound `CC(C)(C)OC(=O)N1CC[C@H](c2ccc3c(c2)OCO3)[C@@H](OCc2ccc3ccccc3c2)C1` (racemic), the melting point lay within 128 to 129 °C.
Compound `O=C1NC(=O)c2c1c(-c1ccccc1)cc1c2c2cc(O)ccc2n1CCN1CCOCC1` yielded a melting point of 260 to 262 °C.
In the case of `O=C(O)c1ccc(C=Cc2ccc(-c3cc4ccccc4o3)cc2)cc1`, the melting point was in the range of 348 to 349 °C.
`CSC1=NC2=NC3=C(CN2N1)C(Cc1ccccc1)CNC3=O` (stereo not given) gave a melting point of 232 to 234 °C.
The value for `Cc1cccc(C)c1NC(=O)CCCSc1cc(C(C)(C)C)c(O)c(C(C)(C)C)c1` was 140 °C; that for `CCCCCCCCCCCCCCCCCCOc1cc(C(=O)O)cc([N+](=O)[O-])c1` was 101 to 103 °C; that for `CCCC(c1ccc(C(=O)OC)cc1OCc1ccc(Cl)cc1Cl)n1ccnc1` (stereo not given) was 104 °C.
The value for `COC(=O)Nc1nc(-c2ccccc2)c(-c2nc3ccccc3c(=O)n2-c2ccc(C)cc2)s1` was more than 275 °C.
Compound `CCSC(=O)CCS(=O)CC` (stereo not given) registered a melting point of 35.5 to 36 °C.
`CC(C)(C)c1cc2ccccc2[nH]1` came in with a melting point of 71 to 72 °C.
With `O=C1C(Cc2ccccc2)CCCCCC1Cc1ccccc1` (stereo not given), the melting point lay within 66 to 68 °C.
The compound `Fc1nc(Oc2ccc(CCNc3ncnc4nccnc34)cc2)c(F)c(C(F)(F)F)c1F` registered a melting point of 103 to 108 °C.
On to `ClCCOc1ccc(CBr)cc1`, for which the melting point lay in the range of 64 to 66 °C.
For the compound `O=[N+]([O-])c1cc(OCc2ccccc2)ccc1CCBr`, the melting point lay in the range of 30 to 34 °C.
For the compound `COC(=O)c1cc(N)n(C)n1`, the melting point lay in the range of 101 to 102 °C.
In the case of `Cc1nnc(-c2ccc(C)c(Br)c2)o1` it was 91 to 93 °C; in that of `Cn1ncc(C(=O)N2CCCC2)c1C(=O)Nc1cc2nc(-c3ccccc3)nn2cc1F`, 250 to 251 °C.
In the case of `[N-]=[N+]=NCCCC(=O)N1CCc2c(OC(CO)CO)ccc([N+](=O)[O-])c21`, the melting point was 78 to 79 °C.
In the case of `COCOCc1oc2c(OC)cccc2c1CCSC(c1ccccc1)c1ccccc1` it was 110 °C; in that of `Nc1ccc(C(=O)c2cccnc2)cc1[N+](=O)[O-]`, 229 to 230 °C; in that of `O=Cc1ccc(OCCCN2C(=O)c3ccccc3C2=O)cc1`, 120 to 121 °C.
`COc1ccc(C2=NN(C3CCN(c4ncccn4)CC3)C(=O)[C@@H]3CC=CC[C@H]23)cc1OC` registered a melting point of 163 to 166 °C.
`CNC(=O)c1ccc(N2CCN(Cc3cnc4c(c3)[nH]c(=O)n3cccc43)CC2)cc1` displayed a melting point of 286 to 289 °C.
In the case of `CCCn1c(=S)c2[nH]c(C(C)C)nc2n(CCC)c1=O`, the melting point lay within 133 to 134 °C.
`CCn1nc(-c2ccc(OC)c(F)c2)c(-c2ccc(OC)c(F)c2)cc1=O` had a melting point of 178 °C.
`CC1=CC(C)(C)Nc2ccc(O)cc21` displayed a melting point of 182 to 184 °C.
Compound `CNC(=O)C[C@@H]1N=C(c2ccc(Cl)cc2)c2c(sc(C)c2C)-n2c(C)nnc21` returned a melting point of 143 to 145 °C.
For `Cc1nc(-c2ccc(Cl)cc2)sc1C(=O)NCc1ccc(OC(C)(C)C(=O)O)cc1`, the melting point was 131 °C.
Compound `COC(=O)c1ccc(C(=O)c2ccccc2)o1` came in with a melting point of 70 to 73 °C.
In turn, `OC1(c2ccc(F)cc2)CCN(CCCc2noc3cc(F)ccc23)CC1` showed a melting point of 100 to 101 °C.
The value for `CCC(=O)c1cnc(C(=O)C(C)C)cn1` was 70 to 71 °C.
In the case of `CCC1(O)CC(=O)OCc2c1cc1n(c2=O)Cc2c-1nc1ccccc1c2CCC(C)C` (stereo not given) it was 263 °C; in that of `CCCCc1cc(Br)c(N=Nc2ccc(N(CCO)CCO)cc2NC(C)=O)c(Br)c1`, 157 to 159 °C.
For the compound `CCOC(=O)CCc1cc(-c2ccc(C)cc2)n(-c2ccc(S(N)(=O)=O)cc2)n1`, the melting point lay in the range of 116 to 117 °C.
`CN(C)NC(=O)N(O)C1c2ccccc2Oc2ccccc21` registered a melting point of 196 to 198 °C.
With `OCc1coc(/C=C/c2ccccc2)n1`, the melting point was 94 to 95 °C.
The value for `COc1cc(C#N)cc2c1OC(C)(C)C2` was 73 to 74 °C; that for `CCOC(=O)C1=C(O)c2ccc3ccccc3c2S(=O)(=O)N1C` was 163 to 165 °C; that for `COC(=O)C[C@@H]1C[C@@H](COc2ccc(-c3ccc(C(=N)NC(=O)OCc4ccccc4)cc3)cc2)N(c2ccccc2)C1=O` was 157 to 159 °C.
In the case of `O=C(Cl)N1CC(Oc2cccc(C(F)(F)F)c2)C1` it was 72.5 to 74 °C; in that of `COC(=O)c1cn(-c2cc(C(=O)OC)c([N+](=O)[O-])cc2C(F)(F)F)cn1`, 136 to 138 °C.
The compound `CS(=O)(=O)c1ccc(-c2cc(=O)[nH]c(C(F)(F)F)c2-c2ccc(F)cc2)cc1` returned a melting point of 232 to 242 °C.
`CCc1c(C)n(C)c2ccc(NC(=O)Nc3ccccn3)cc12` displayed a melting point of 120 to 123 °C.
In turn, `COc1ccc2oc(N(C=O)[C@@H](Cc3ccccn3)c3ncc(-c4ccc(-n5ccnc5)cc4)n3C)cc2c1` gave a melting point of 151 to 153 °C.
In turn, `CC12CCC3C4CCC(=O)C=C4CCC3C1CCC2CO` (stereo not given) gave a melting point of 115 to 118 °C.
As for `Cc1noc(NS(=O)(=O)c2cccc3c(NC(C)C)cccc23)c1C`, the melting point was 156 to 159 °C.
`CS(=O)(=O)C(=C1CN(C(c2ccccc2)c2ccccc2)C1)c1cccc(F)c1F` had a melting point of 208 °C.
Compound `COCCOCc1c(CN(C)CC(O)c2ccccn2)sc2c(=O)c(C(=O)NCc3ccc(Cl)cc3)cn(C)c12` (stereo not given) had a melting point of 150 to 152 °C.
The value for `Cc1cc(C)nc(NC(=O)NS(=O)(=O)c2ccccc2C(=O)N(C)C)c1` was 166 to 168 °C.
In turn, `N#Cc1cncc(NCc2ccccc2)c1` gave a melting point of 131 °C.
Regarding `NC(=O)c1[nH]c2ccccc2c1Cl`, the melting point lay within 191 to 192 °C.
